According to ChEMBL document CHEMBL5518172, “Discovery of hydroxamate as a promising scaffold dually inhibiting metallo- and serine-β-lactamases” (Eur J Med Chem, 2024):

How the values were obtained:
Escherichia coli [1] = experiment: Synergistic antibacterial activity against Escherichia coli BL21 (DE3) harboring serine beta lactamase OXA-48 assessed as meropenem MIC at 64 microg/ml measured after 16 hrs by CLSI protocol based broth microdilution method (reference value: 1 microg/ml); format: functional; conditions: dose 64 µg/ml
Bacteria [2] = experiment: Inhibition of recombinant serine beta lactamase KPC-2 (unknown origin) expressed in Escherichia coli BL21 (DE3) cells using meropenem as substrate at 20 uM by spectrometric analysis relative to control
Escherichia coli [3] = experiment: Synergistic antibacterial activity against Escherichia coli BL21 (DE3) harboring metallo-beta-lactamase IMP-1 assessed as meropenem MIC at 64 microg/ml measured after 16 hrs by CLSI protocol based broth microdilution method (reference value: 64 microg/ml); format: functional; conditions: dose 64 µg/ml
[4] = Inhibition of recombinant serine beta lactamase OXA-48 (unknown origin) expressed in Escherichia coli BL21 (DE3) cells using meropenem as substrate by spectrometric analysis; design: species or system Bacteria
Escherichia coli [5] = experiment: Synergistic antibacterial activity against Escherichia coli BL21 (DE3) harboring metallo-beta lactamase IMP-1 assessed as fold decrease in meropenem MIC at 64 microg/ml measured after 16 hrs by CLSI protocol based broth microdilution method; format: functional; conditions: dose 64 µg/ml
Escherichia coli [6] = experiment: Synergistic antibacterial activity against Escherichia coli BL21 (DE3) harboring serine beta lactamase KPC-2 assessed as fold decrease in meropenem MIC at 64 microg/ml measured after 16 hrs by CLSI protocol based broth microdilution method; format: functional; conditions: dose 64 µg/ml
[7] = Inhibition of recombinant metallo-beta-lactamase IMP-1 (unknown origin) expressed in Escherichia coli BL21 (DE3) cells using meropenem as substrate by spectrometric analysis; design: species or system Bacteria
Escherichia coli [8] = experiment: Synergistic antibacterial activity against Escherichia coli BL21 (DE3) harboring NDM-1 assessed as meropenem MIC at 64 microg/ml measured after 16 hrs by CLSI protocol based broth microdilution method (reference value: 256 microg/ml); format: functional; conditions: dose 64 µg/ml
[9] = Inhibition of recombinant serine beta lactamase KPC-2 (unknown origin) expressed in Escherichia coli BL21 (DE3) cells using meropenem as substrate by spectrometric analysis; design: species or system Bacteria
Bacteria [10] = experiment: Inhibition of recombinant metallo-beta-lactamase L-1 (unknown origin) expressed in Escherichia coli BL21 (DE3) cells using cefazolin as substrate at 20 uM by spectrometric analysis relative to control
[11] = target: Metallo-beta-lactamase type 2 (Bacteria, UniProt C7C422); experiment: Inhibition of recombinant NDM-1 (unknown origin) expressed in Escherichia coli BL21 (DE3) cells using meropenem as substrate by spectrometric analysis
Escherichia coli [12] = experiment: Synergistic antibacterial activity against Escherichia coli BL21 (DE3) harboring serine beta lactamase KPC-2 assessed as meropenem MIC at 64 microg/ml measured after 16 hrs by CLSI protocol based broth microdilution method (reference value: 16 microg/ml); format: functional; conditions: dose 64 µg/ml
Bacteria [13] = experiment: Inhibition of recombinant serine beta lactamase OXA-48 (unknown origin) expressed in Escherichia coli BL21 (DE3) cells using meropenem as substrate at 20 uM by spectrometric analysis relative to control
Bacteria [14] = experiment: Inhibition of recombinant metallo-beta-lactamase ImiS (unknown origin) expressed in Escherichia coli BL21 (DE3) cells using meropenem as substrate at 20 uM by spectrometric analysis relative to control
[15] = target: Metallo-beta-lactamase type 2 (Bacteria) (UniProt C7C422); experiment: Inhibition of recombinant NDM-1 (unknown origin) expressed in Escherichia coli BL21 (DE3) cells using meropenem as substrate at 20 uM by spectrometric analysis relative to control
Escherichia coli [16] = experiment: Synergistic antibacterial activity against Escherichia coli BL21 (DE3) harboring NDM-1 assessed as fold decrease in meropenem MIC at 64 microg/ml measured after 16 hrs by CLSI protocol based broth microdilution method; format: functional; conditions: dose 64 µg/ml
Bacteria [17] = experiment: Inhibition of recombinant metallo-beta-lactamase IMP-1 (unknown origin) expressed in Escherichia coli BL21 (DE3) cells using cefazolin as substrate at 20 uM by spectrometric analysis relative to control
Escherichia coli [18] = experiment: Synergistic antibacterial activity against Escherichia coli BL21 (DE3) harboring serine beta lactamase OXA-48 assessed as fold decrease in meropenem MIC at 64 microg/ml measured after 16 hrs by CLSI protocol based broth microdilution method; format: functional; conditions: dose 64 µg/ml

Metallo-beta-lactamase type 2, sequence (C7C422 whole entry): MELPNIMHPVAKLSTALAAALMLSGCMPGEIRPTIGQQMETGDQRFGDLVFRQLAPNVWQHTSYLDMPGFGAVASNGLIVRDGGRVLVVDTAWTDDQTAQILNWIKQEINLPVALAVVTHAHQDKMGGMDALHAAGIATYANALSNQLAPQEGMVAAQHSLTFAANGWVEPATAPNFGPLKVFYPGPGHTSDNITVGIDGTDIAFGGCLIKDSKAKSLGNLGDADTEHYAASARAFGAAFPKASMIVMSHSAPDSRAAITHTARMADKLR
Metallo-beta-lactamase type 2 (Bacteria), sequence (C7C422 whole entry): as above

Row | SMILES | MIC (Escherichia coli [1]) [µg/mL] | inhibition (Bacteria [2]) [%] | MIC (Escherichia coli [3]) [µg/mL] | IC50 [4] [µM] | fold change (FC) (Escherichia coli [5]) | fold change (FC) (Escherichia coli [6]) | IC50 [7] [µM] | MIC (Escherichia coli [8]) [µg/mL] | IC50 [9] [µM] | inhibition (Bacteria [10]) [%] | IC50 [11] [µM] | MIC (Escherichia coli [12]) [µg/mL] | inhibition (Bacteria [13]) [%] | inhibition (Bacteria [14]) [%] | inhibition [15] [%] | fold change (FC) (Escherichia coli [16]) | inhibition (Bacteria [17]) [%] | fold change (FC) (Escherichia coli [18])
1 | O=C(CCc1ccccc1)NOC(=O)OCc1ccccc1 | 1 | > 90 | 32 | 3.09 | 2 | 2 | 1.69 | 64 | 2.66 | < 42 | 2.18 | 8 | > 90 | < 42 | > 90 | 2 | > 90 | 
2 | CCCCCOC(=O)ONC(=O)CCc1ccccc1 | 1 |  | 16 | 9.08 | 2 | 2 | 1.73 | 64 | 4.51 | < 42 | 4.72 | 8 |  | < 42 | > 90 | 2 | > 90 | 
3 | O=C(CCC1CCCCC1)NOC(=O)OCc1ccccc1 | 0.5 | > 90 | 32 | 1.99 | 2 |  | 6.48 | 64 | 0.6 |  | 1.27 | 16 | > 90 |  |  | 2 |  | 2
4 | CCCCCOC(=O)ONC(=O)C(CC)c1ccccc1 (configuration not stated) | 1 |  | 32 | 22.3 | 2 | 2 | 23 | 128 | 17.5 |  | 35.3 | 8 |  |  |  | 2 |  | 
5 | CC(C)COC(=O)ONC(=O)CCc1ccccc1 | 1 | > 90 | 32 | 2.74 | 2 | 2 | 12.4 | 128 | 4.56 |  | 6.01 | 8 | > 90 |  |  | 2 |  | 
6 | CCOC(=O)ONC(=O)CCC1CCCCC1 | 0.063 | > 90 | 32 | 3.45 | 2 |  | 3.03 | 64 | 1.29 |  | 3.27 | 16 | > 90 |  |  | 2 |  | 16
7 | CCOC(=O)ONC(=O)CCc1ccccc1 | 0.5 |  | 32 | 8.5 | 2 | 2 | 1.83 | 128 | 7.7 |  | 5.03 | 8 |  |  |  | 2 |  | 2
8 | CCCCCOC(=O)ONC(=O)CCCc1ccccc1 | 0.5 | > 90 | 16 | 1.03 | 2 | 2 | 0.85 | 64 | 1.47 | < 42 | 1.87 | 8 | > 90 | < 42 | > 90 | 2 | > 90 | 2
